According to patent US20100285145A1, “GPR 119 MODULATORS” (PFIZER INC, priority 2009, published 2010):
“And” between values parts separate entries of the source, which are not always exact repeats. Equal values may be shown once.

Columns and labels:
human GPR119 [1] = biological target: T1, human GPR119 (Homo sapiens, UniProt Q8TDV5); assay: β-Arrestin PathHunter assay (U2OS hGPR119 β-arrestin cells); format: cell-based; details: for EC50: U2OS hGPR119 β-arrestin cells, 90 min, each line a separate determination, read-out: Human B-arrestin Functional EC50; for Emax: U2OS, read-out: Intrinsic Activity (Human B-arrestin); for Emax / Intrinsic Activity (Human B-arrestin): percent of maximal activity relative to standard GPR119 agonist at 10 micromolar
T1 sequence (Q8TDV5 1-335): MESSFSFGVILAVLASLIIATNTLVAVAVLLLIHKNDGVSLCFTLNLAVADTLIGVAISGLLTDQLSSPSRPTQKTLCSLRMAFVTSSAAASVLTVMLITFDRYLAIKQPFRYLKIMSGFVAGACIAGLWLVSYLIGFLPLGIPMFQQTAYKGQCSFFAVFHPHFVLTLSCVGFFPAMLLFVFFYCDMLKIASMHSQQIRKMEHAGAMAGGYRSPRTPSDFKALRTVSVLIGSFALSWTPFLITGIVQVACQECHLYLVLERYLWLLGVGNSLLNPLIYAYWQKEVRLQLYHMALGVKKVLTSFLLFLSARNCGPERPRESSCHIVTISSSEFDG
In short: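 Cells carry ProLink-tagged GPR119 and EA-fused β-arrestin; 5000 cells/well were plated overnight in Opti-MEM with 2% charcoal-dextran serum. Compounds were applied for 90 min at 37 °C in HBSS/20 mM HEPES pH 7.0/0.1% BSA (0.5% DMSO), followed by Galacton Star substrate for 60 min at RT and a luminescence read. EC50 came from a 4-parameter logistic fit.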

human GPR119 [2] = biological target: T1, human GPR119; assay: cAMP HTRF functional assay (hGPR119 HEK-CRE beta-lactamase cells); format: cell-based; design: host or cells: HEK293-CRE beta-lactamase; details: for EC50: HTRF cAMP, 30 min, 400 microM IBMX, each line a separate determination; for Intrinsic Activity (Human cAMP) / Emax: percent of maximal activity relative to standard GPR119 agonist at 10 micromolar; for Emax: read-out: Intrinsic Activity (Human cAMP)
In short: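 hGPR119 HEK-CRE cells (5000/well), cultured overnight, then treated 30 min at room temperature with compound plus 400 microM IBMX (0.58% DMSO). cAMP measured by competitive HTRF immunoassay after 60 min lysis/detection, converted to nM via standard curve; EC50 from 4-parameter logistic fit.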

SMILES | EC50 (human GPR119 [1]) | Emax (human GPR119 [1]) [%] | Intrinsic Activity (Human B-arrestin) (human GPR119 [1]) | EC50 (human GPR119 [2]) | Intrinsic Activity (Human cAMP) (human GPR119 [2]) | Emax (human GPR119 [2]) [%]
Cc1c(O[C@H]2[C@@H]3COC[C@H]2CN(C(=O)OC2(C)CCC2)C3)ncnc1N1CCc2ncccc21 [Example 27, 1-Methylcyclobutyl (9-anti)-9-{[6-(2,3-dihydro-1H-pyrrolo[3,2-b]pyridin-1-yl)-5-methylpyrimidin-4-yl]oxy}-3-oxa-7-azabicyclo[3.3.1]nonane-7-carboxylate] | 4.02 nM and 22.9 nM and 5.81 nM and 11 nM | 63.5 | 64.2% and 58.1% and 51.4% | 74.5 nM and 68.9 nM and 42.7 nM and 69.8 nM | 43.5% and 30.6% and 28.4% | 39.1
Cc1c(OC2CCN(C(=O)OC(C)C)CC2)ncnc1N1CCc2ncccc21 [Example 13, Isopropyl 4-{[6-(2,3-dihydro-1H-pyrrolo[3,2-b]pyridin-1-yl)-5-methylpyrimidin-4-yl]oxy}-piperidine-1-carboxylate] | 89.4 nM | 29.1 |  | 24.1 nM and 39.7 nM and 76.3 nM and 30.2 nM | 19.5% and 29.2% and 24.4% | 20.3
Cc1c(O[C@H]2[C@@H]3COC[C@H]2CN(C(=O)OC(C)C)C3)ncnc1N1CCc2ncccc21 [Example 22, Isopropyl (9-anti)-9-{[6-(2,3-dihydro-1H-pyrrolo[3,2-b]pyridin-1-yl)-5-methylpyrimidin-4-yl]oxy}-3-oxa-7-azabicyclo[3.3.1]nonane-7-carboxylate] | 40.2 nM and 33.1 nM and 74.6 nM and 41.8 nM | 68.8 | 70.5% and 71.2% and 60.3% | 116 nM and 169 nM and 137 nM and 269 nM | 80.4% and 66.6% and 74.1% and 55.6% | 
